≈ marks a conversion by molar mass, not a printed value.
What was measured:
[1] = tested on: E. faecalis; assay: Bacterial colonization of the nematode intestine (CFU per worm); format: in vivo, Enterococcus faecalis; settings: 100% = 3.28 × 10^4 CFU/worm
Procedure: Infected worms were washed three times with M9 buffer containing 1 mM sodium azide. Approximately 10 worms were transferred to a 2 ml microcentrifuge tube and the volume was brought to 250 μl. Fifty μl of buffer was removed and plated to determine the number of external CFU.

[2] = tested on: E. faecalis strain MMH594; assay: C. elegans-E. faecalis liquid infection (curing) assay in 96-well plates, worm survival; format: in vivo, Enterococcus faecalis; settings: glp-4, sek-1 C. elegans infected with E. faecalis MMH594
Procedure: (§1) Worm survival was scored manually after 6 days of incubation. […] MICs were determined against E. faecalis strain MMH594 using 2-fold dilution in BHI media according to the broth microdilution protocol of the NCCLS (CLSI) (National Committee for Clinical Laboratory Standards, Approved Standard M7-A5; Methods for Dilution Antimicrobial Susceptibility Tests for Bacteria that Grow Aerobically, Villanova, Pa.: NCCLS (2000)).

[3] = tested on: E. faecalis strain MMH594; assay: MIC, 2-fold broth microdilution in BHI media (NCCLS); format: cell-based, Enterococcus faecalis; settings: E30 value is at its aqueous solubility limit
Procedure: as §1

[4] = tested on: C. parapsilosis ATCC#22019; settings: cited from earlier work
[5] = tested on: C. krusei ATCC#6258; settings: cited from earlier work
[6] = tested on: C. albicans MLR62; assay: Fungal burden within C. elegans (cfu per worm); format: in vivo, Candida albicans; settings: for concentration of Candida cfu in the nematodes: data not shown
Procedure: The number of C. albicans colony forming units in C. elegans was quantified based on the protocol detailed by Tang et al., Infect. Immun. 73:8219 (2005) and Garsin et al., Proc. Natl. Acad Sci. USA 98:10892 (2001) with a few modifications. C. albicans strain MLR62 lawns were prepared on BHI as described above. C. elegans glp-4; sek-1 worms were exposed to the lawns for 30 minutes and then moved to liquid media and incubated at 25° C. in the presence or absence of antifungal agents. At appropriate time points, 3 groups of 10 worms each were washed twice in 8 μl drops of M9 buffer on BHI agar plates, in order to remove surface Candida. Each group of 10 worms was then disrupted using a Pellet Pestle Motor (Kontes) and plated on YPD agar containing kanamycin (45 μg/ml), ampicillin (100 μg/ml), and streptomycin (100 μg/ml). The plates were incubated for 48 hours at 30′C and colonies were counted.

[7] = tested on: DAY185; settings: Candida strain DAY185; cited from earlier work
[8] = tested on: C. albicans strain MLR62; assay: C. elegans liquid medium killing assay with established antifungals; format: in vivo, Candida albicans
Procedure: (§2) Candida strains were inoculated in 2 ml of YPD and grown at 30° C. for 24 hours. Lawns were prepared by spreading 10 μl of each culture on 35 mm tissue-culture plates (Falcon) containing solid brain heart infusion (BHI) media (Difco) with kanamycin (45 μg/ml), ampicillin (100 μg/ml), and streptomycin (100 μg/ml). The plates were incubated at 30′C for 24 hours followed by 25° C. for 24 hours. glp-4; sek-1 and glp-4 worms were grown at 15° C. until they reached the L2 stage, and then they were transferred to 25° C. for 24 h. N2 wild-type worms were grown at 15° C. for 72 h, until they reached the L4 stage. Approximately 100 worms were picked onto each lawn and allowed to feed for 30 minutes to 2 hours. The worms were washed off the plates with M9 buffer and allowed to crawl on unseeded BHI plates to remove yeast cells from their cuticles. Roughly 70-80 worms were then picked to wells in a six-well microtiter dish that contained 1.5 ml liquid medium of 79% M9 buffer, 20% BHI, 2 μM cholesterol and 90 μg/ml kanamycin. The plates were incubated at 25° C. overnight and then examined at 24-hour intervals for survival.
To develop a system that allows high throughput screening for antifungal compounds, we first evaluated whether established antifungals prolong the survival of nematodes infected with Candida spp. For this, we used different C. albicans isolates as well as non-albicans strains, including those used as reference strains by clinical microbiology laboratories ([…], N. C. F. C. L. Methods for antifungal disk diffusion susceptibility testing of yeasts; approved guideline M44-A. (National Committee for Clinical Laboratory Standards, Wayne, Pa., 2004)).

[9] = tested on: C. albicans strain MLR62; assay: C. elegans-Candida killing assay, compound library screen in 96-well plates; format: in vivo, Candida albicans; settings: positive control of the screen; <25% alive in PBS
Procedure: For testing the efficacy of chemical compounds, C. albicans strain MLR62 was inoculated into 2 ml of YPD and grown at 30° C. for 24 hours; 10 μl of the culture was spread on 35-mm tissue-culture plates (Falcon) containing brain heart infusion (BHI) agar (Difco) with kanamycin (45 μg/ml), ampicillin (100 μg/ml), and streptomycin (100 μg/ml). The plates were incubated at 30° C. for 24 hours. C. elegans animals at the L4 developmental stage (grown as detailed above under C. elegans liquid medium killing assays) were transferred from a lawn of E. coli HB101 onto C. albicans lawns on BHI medium, incubated at 25° C. for 30 minutes, and then pipetted in 50 μl into 96-well plate wells that contained 100 μl liquid media (79% of M9 buffer, 20% BHI media, 2 μM cholesterol and 90 μg/ml kanamycin). C. elegans glp-4; sek-1 nematodes were pipetted into 96-well plates that contained compounds from chemical libraries. Library 1361 was assembled by Biomol and contains well-characterized compounds that affect many different aspects of cellular pathways. The NINDS custom collection (plates 501-503) was put together by MicroSource Discovery Systems for the National Institute of Neurological Disorders and Stroke (NINDS), the Huntington's Disease Society of America (HDSA), the Amyotrophic Lateral Sclerosis (ALS) Association, and the Hereditary Disease Foundation (HDF). It mostly contains FDA approved drugs. The Prestwick library (plate 1569) contains compounds that are known to be safe and bioactive in humans. The majority of the compounds are marketed drugs.
On day 6, nematodes were evaluated for survival, filament formation and optical density. The plates were incubated at 25° C. and examined on day 6 for survival with a Nikon SMZ645 dissecting microscope. In addition, images were obtained using a CellWorx High Content Cell Analysis System (Applied Precision) at 4× magnification. Dead worms were counted but not removed. […] Each compound was also scored by the number of dead worms in the well that developed hyphea. […] Compounds were categorized as having a minimal effect on filament formation if 25-75% of the dead worms developed hyphea.
Approximately 25 nematodes were used to analyze each chemical compound tested. Two controls were used in all plates. […] In this pilot screen, we considered a compound as a “hit” when survival in the compound well with was 50% and above of the median survival of the control wells. Depending on the compound library, the final concentration of the compounds was 33.33 μg/ml, 13.33 μg/ml, or […].

[10] = tested on: C. albicans ATCC#90028; settings: cited from earlier work
[11] = tested on: C. krusei ATCC#6258; format: in vivo; settings: fluconazole 32 μg/ml, fluconazole-resistant strain
Procedure: as §2
To develop a system that allows high throughput screening for antifungal compounds, we first evaluated whether established antifungals prolong the survival of nematodes infected with Candida spp. […]

[12] = caspofungin 8 μg/ml, amphotericin B 16 μg/ml, fluconazole 32 μg/ml, FIG. 17A

Structure (SMILES)	Amt. Colonization vs untreated [1]	Therapeutic Concentration [2]	Fold Survival vs untreated ([2]; untreated = 24% survival)	MIC [3]	MIC [4]	MIC [5]	concentration of Candida cfu in the nematodes [6]	MIC [7]	prolongation of nematode survival ([8]; in vivo)	nematode survival at day 6 [9]	fungal burden, average colony-forming units ([6]; 8 μg/ml, untreated 170.8±63.5 cfu per worm, P<0.001)	prolongation of nematode survival [8, 12]	lowest effective concentration (effective at concentrations as low as) ([8]; nematode survival, P<0.0001)	MIC [10]	effect on nematode survival [11]
O=c1oc2ccccc2c(O)c1/C(=C/C(=N/Nc1ccccc1)c1ccc(-c2ccc(Br)cc2)cc1)c1ccccc1 [Compound G1]	6%	25 µg/mL	3.3	31.3 µg/mL (≈ 51 µM)											
C[C@@H]1[C@H](O)[C@@H](C)/C=C/C=C/C=C/C=C/C=C/C=C/C=C/[C@H](O[C@@H]2O[C@H](C)[C@@H](O)[C@H](N)[C@@H]2O)C[C@@H]2O[C@](O)(C[C@@H](O)C[C@@H](O)[C@H](O)CC[C@@H](O)C[C@@H](O)CC(=O)O[C@H]1C)C[C@H](O)[C@H]2C(=O)O [amphotericin B]					MIC: 2 μg/ml for amphotericin B^d,	MIC: 2 μg/ml for amphotericin B^d,	significantly decreased	0.5 µg/mL (≈ 0.541 µM)	effective						
CC[C@H](C)C[C@H](C)CCCCCCCCC(=O)N[C@H]1C[C@@H](O)[C@@H](NCCN)NC(=O)[C@@H]2[C@@H](O)CCN2C(=O)[C@H]([C@H](O)CCN)NC(=O)[C@H]([C@H](O)[C@@H](O)c2ccc(O)cc2)NC(=O)[C@@H]2C[C@@H](O)CN2C(=O)[C@H]([C@@H](C)O)NC1=O [caspofungin]					0.5 to 2 µg/mL	0.5 to 2 µg/mL		2 µg/mL (≈ 1.83 µM)		> 75%	0.3±0.2 cfu per worm	effective	1 µg/mL	1 μg/ml for caspofungin	
OC(Cn1cncn1)(Cn1cncn1)c1ccc(F)cc1F [fluconazole]					2 µg/mL (≈ 6.53 µM)	32 µg/mL (≈ 104 µM)	significantly decreased	2 µg/mL (≈ 6.53 µM)				effective			no effect

Source: patent publication US20170020900A1, “METHODS FOR SCREENING ANTIMICROBIAL AND ANTIVIRAL COMPOUNDS AND USES THEREOF” (The General Hospital Corporation, priority 2006, published 2017)
